Each block holds one compound with its values, some of them ahead of it.
Tests used:
PRMT5/MEP50 complex = PRMT5/MEP50 complex (Homo sapiens, UniProt O14744); experiment: Inhibition of recombinant N-terminal FLAG-tagged human full-length PRMT5/full length human MEP50 extracted from baculovirus expression system using [3H]-SAM as substrate preincubated for 15 mins followed by substrate addition and measured after 60 mins by multimode plate reader analysis
Z-138 = experiment: Antiproliferative activity against human Z138 cells measured after 7 days by CellTiter-Glo luminescence cell viability assay; type: functional, cell-based; settings: Z-138, 168 h
[1] = Half-life in Sprague-Dawley rat at 10 mg/kg, po by LC-MS/MS analysis; type: ADME, organism-based; settings: in vivo; for half-life: Sprague-Dawley
[2] = Tmax in Sprague-Dawley rat at 10 mg/kg, po by LC-MS/MS analysis; type: ADME, organism-based; settings: in vivo
[3] = Cmax in Sprague-Dawley rat at 10 mg/kg, po by LC-MS/MS analysis; type: ADME, organism-based; settings: in vivo
[4] = AUC (0 to t) in Sprague-Dawley rat at 10 mg/kg, po by LC-MS/MS analysis; type: ADME, organism-based; settings: in vivo; for AUC(0-t): Sprague-Dawley
[5] = MRT (0 to t) in Sprague-Dawley rat at 10 mg/kg, po by LC-MS/MS analysis; type: ADME, organism-based; settings: in vivo
[6] = Oral bioavailability in Sprague-Dawley rat at 10 mg/kg by LC-MS/MS analysis; type: ADME, organism-based; settings: in vivo
[7] = Half-life in Sprague-Dawley rat at 2 mg/kg, iv by LC-MS/MS analysis; type: ADME, organism-based; settings: in vivo
[8] = Cmax in Sprague-Dawley rat at 2 mg/kg, iv by LC-MS/MS analysis; type: ADME, organism-based; settings: in vivo
[9] = AUC (0 to t) in Sprague-Dawley rat at 2 mg/kg, iv by LC-MS/MS analysis; type: ADME, organism-based; settings: in vivo
[10] = MRT (0 to t) in Sprague-Dawley rat at 2 mg/kg, iv by LC-MS/MS analysis; type: ADME, organism-based; settings: in vivo
[11] = Clearance in Sprague-Dawley rat at 2 mg/kg, iv by LC-MS/MS analysis; type: ADME, organism-based; settings: in vivo
[12] = Volume of distribution in Sprague-Dawley rat at 2 mg/kg, iv by LC-MS/MS analysis; type: ADME, organism-based; settings: in vivo
[13] = target: Protein arginine N-methyltransferase 3 (Homo sapiens, UniProt O60678); experiment: Inhibition of PRMT3 (unknown origin)
[14] = target: T1, Histone-arginine methyltransferase CARM1 (Homo sapiens, UniProt Q86X55); experiment: Inhibition of PRMT4 (unknown origin)
T1 sequence (Q86X55 whole entry): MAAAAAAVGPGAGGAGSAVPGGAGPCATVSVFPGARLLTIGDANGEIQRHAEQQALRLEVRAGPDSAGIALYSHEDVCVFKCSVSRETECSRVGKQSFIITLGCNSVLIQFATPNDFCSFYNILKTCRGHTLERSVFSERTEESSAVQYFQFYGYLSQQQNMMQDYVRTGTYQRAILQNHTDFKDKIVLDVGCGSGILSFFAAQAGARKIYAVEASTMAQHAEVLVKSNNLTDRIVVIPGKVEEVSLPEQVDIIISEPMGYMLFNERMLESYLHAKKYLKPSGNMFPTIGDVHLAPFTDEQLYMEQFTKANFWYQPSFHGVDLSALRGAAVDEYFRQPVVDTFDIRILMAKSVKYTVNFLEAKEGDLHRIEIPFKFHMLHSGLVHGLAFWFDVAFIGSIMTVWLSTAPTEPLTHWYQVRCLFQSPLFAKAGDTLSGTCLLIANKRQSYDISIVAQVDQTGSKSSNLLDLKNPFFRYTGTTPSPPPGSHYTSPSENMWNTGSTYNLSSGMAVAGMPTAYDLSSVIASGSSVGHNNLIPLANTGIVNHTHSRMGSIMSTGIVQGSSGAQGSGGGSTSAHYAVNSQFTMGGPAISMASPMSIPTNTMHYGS

[15] = target: Protein arginine N-methyltransferase 6 (Homo sapiens, UniProt Q96LA8); experiment: Inhibition of PRMT6 (unknown origin)
[16] = target: T2, Protein arginine N-methyltransferase 7 (Homo sapiens, UniProt Q9NVM4); experiment: Inhibition of PRMT7 (unknown origin)
T2 sequence (Q9NVM4 whole entry): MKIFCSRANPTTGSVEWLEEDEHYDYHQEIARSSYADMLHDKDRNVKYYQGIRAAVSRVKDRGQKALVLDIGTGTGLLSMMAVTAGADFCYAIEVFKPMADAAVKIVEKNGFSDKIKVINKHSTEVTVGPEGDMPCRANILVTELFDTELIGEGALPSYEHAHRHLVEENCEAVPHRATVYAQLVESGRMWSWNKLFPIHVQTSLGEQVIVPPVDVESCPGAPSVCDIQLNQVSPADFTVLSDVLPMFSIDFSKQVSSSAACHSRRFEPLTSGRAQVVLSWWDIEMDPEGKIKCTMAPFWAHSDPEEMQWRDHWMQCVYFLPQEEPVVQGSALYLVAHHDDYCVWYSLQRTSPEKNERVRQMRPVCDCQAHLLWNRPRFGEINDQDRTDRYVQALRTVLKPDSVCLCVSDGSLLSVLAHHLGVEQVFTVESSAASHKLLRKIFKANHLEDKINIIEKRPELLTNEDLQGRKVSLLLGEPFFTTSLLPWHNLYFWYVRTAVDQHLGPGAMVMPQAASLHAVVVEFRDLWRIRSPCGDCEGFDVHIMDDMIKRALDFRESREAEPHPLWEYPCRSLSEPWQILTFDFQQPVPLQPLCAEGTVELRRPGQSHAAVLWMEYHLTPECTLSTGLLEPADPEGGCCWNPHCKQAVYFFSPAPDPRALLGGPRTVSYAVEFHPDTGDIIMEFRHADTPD

[17] = target: Protein arginine N-methyltransferase 8 (Homo sapiens, UniProt Q9NR22); experiment: Inhibition of PRMT8 (unknown origin)
[18] = target: Voltage-gated inwardly rectifying potassium channel KCNH2 (Homo sapiens, UniProt Q12809); experiment: Inhibition of human ERG; type: toxicity
Chain of Voltage-gated inwardly rectifying potassium channel KCNH2 (Q12809 whole entry): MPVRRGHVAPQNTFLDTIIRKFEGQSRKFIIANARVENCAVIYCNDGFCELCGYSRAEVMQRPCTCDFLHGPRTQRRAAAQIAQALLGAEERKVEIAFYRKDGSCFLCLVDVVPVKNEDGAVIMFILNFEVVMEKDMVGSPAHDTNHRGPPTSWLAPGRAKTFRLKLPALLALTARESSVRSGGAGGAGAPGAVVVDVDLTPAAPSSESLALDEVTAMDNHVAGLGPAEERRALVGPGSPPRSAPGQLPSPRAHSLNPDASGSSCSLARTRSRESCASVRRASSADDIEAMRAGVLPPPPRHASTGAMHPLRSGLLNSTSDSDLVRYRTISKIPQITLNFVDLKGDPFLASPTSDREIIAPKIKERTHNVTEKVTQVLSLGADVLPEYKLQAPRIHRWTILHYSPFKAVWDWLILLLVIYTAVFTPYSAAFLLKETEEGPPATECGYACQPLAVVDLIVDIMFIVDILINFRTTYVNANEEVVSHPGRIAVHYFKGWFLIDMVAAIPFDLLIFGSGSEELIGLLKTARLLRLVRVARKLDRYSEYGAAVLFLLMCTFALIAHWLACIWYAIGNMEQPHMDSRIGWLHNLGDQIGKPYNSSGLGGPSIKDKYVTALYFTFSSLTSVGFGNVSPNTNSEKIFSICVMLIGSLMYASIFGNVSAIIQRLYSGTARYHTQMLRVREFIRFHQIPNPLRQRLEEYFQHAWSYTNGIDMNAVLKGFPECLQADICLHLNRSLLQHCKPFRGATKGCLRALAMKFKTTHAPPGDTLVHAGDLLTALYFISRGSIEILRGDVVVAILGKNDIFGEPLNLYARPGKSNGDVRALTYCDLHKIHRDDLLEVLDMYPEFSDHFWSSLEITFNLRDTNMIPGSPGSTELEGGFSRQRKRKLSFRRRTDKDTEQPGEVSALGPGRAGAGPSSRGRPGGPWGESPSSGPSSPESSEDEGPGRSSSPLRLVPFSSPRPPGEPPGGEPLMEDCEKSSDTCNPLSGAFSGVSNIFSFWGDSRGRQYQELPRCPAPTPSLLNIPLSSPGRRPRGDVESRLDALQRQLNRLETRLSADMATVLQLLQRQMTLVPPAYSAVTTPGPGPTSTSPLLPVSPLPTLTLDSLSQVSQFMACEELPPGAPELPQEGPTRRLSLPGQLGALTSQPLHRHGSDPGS

Chain of PRMT5/MEP50 complex (O14744 whole entry): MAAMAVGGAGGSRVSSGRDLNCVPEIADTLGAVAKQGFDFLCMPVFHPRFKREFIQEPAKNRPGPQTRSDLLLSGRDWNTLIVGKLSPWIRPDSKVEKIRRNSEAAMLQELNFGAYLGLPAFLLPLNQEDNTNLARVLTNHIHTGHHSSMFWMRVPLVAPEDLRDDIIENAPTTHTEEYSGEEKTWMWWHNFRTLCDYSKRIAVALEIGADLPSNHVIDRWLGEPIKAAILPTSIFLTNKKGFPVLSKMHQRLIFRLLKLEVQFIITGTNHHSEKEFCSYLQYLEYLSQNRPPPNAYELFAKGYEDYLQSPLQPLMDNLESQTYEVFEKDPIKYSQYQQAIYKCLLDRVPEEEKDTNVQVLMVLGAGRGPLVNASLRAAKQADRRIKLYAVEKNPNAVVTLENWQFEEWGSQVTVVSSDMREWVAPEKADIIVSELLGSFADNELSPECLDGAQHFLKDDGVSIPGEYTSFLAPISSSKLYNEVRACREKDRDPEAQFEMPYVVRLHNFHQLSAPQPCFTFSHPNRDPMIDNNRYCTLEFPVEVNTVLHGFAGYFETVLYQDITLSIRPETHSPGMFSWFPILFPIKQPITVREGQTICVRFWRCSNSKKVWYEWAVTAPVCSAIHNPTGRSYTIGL
Chain of PRMT5/MEP50 complex (Q9BQA1 whole entry, further chain): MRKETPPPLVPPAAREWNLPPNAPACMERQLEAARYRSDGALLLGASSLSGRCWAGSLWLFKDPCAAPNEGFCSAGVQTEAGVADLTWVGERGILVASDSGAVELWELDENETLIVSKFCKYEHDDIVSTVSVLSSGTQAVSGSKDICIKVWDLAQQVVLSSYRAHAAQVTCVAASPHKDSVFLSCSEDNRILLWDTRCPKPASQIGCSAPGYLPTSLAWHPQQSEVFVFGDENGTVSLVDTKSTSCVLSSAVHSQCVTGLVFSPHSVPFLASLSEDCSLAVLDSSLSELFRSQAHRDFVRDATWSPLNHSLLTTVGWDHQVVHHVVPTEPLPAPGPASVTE
Chain of Protein arginine N-methyltransferase 3 (O60678 whole entry): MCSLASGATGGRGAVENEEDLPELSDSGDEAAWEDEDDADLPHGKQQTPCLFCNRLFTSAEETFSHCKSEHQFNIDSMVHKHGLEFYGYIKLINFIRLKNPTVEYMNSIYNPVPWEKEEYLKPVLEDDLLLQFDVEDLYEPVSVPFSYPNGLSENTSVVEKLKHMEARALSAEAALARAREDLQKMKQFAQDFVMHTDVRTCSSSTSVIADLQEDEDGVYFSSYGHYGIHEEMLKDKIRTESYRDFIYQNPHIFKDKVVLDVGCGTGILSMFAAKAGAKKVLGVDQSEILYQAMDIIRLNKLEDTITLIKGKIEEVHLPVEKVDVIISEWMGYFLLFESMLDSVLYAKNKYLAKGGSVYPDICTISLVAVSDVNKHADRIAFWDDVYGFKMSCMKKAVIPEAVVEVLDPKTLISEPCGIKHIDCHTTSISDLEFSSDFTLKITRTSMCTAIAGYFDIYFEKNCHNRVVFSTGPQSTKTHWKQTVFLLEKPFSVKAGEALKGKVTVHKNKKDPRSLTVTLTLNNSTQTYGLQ
Chain of Protein arginine N-methyltransferase 6 (Q96LA8 whole entry): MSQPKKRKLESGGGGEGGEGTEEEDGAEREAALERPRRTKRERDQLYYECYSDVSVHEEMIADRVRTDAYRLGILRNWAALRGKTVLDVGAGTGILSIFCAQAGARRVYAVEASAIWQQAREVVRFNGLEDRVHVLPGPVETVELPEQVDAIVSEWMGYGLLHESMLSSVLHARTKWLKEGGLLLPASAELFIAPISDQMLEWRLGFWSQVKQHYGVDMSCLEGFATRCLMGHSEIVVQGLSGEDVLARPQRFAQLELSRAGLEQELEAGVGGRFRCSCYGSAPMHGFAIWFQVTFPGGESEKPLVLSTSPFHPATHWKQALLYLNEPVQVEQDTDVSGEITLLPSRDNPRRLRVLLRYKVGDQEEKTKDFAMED
Chain of Protein arginine N-methyltransferase 8 (Q9NR22 whole entry): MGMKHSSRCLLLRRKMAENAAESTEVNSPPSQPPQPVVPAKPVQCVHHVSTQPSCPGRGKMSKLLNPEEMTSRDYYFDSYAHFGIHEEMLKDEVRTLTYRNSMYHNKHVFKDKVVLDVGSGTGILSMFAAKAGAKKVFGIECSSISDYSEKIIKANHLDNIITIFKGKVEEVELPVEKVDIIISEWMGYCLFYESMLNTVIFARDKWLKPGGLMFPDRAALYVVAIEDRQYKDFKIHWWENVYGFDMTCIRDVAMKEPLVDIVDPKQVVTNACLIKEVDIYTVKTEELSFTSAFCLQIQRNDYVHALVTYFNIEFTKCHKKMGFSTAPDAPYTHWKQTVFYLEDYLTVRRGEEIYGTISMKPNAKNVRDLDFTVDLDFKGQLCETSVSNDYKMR

IC50 (PRMT5/MEP50 complex): 9.89 nM
Structure (SMILES): Cn1cc(C(=O)Nc2ccc3c(c2)C(=O)N(C[C@H](O)CN2CCc4ccccc4C2)CC32CC2)cn1
IC50 (Z-138): 292 nM

IC50 (PRMT5/MEP50 complex): 18.3 nM
half-life [1]: 54 min
Tmax ([2]; Sprague-Dawley, read-out: Tmax): 18 min
Cmax ([3]; Sprague-Dawley, read-out: Cmax): 1150 ng/mL
AUC(0-t) [4]: 1460 ng·h/mL
MRT last [5]: 60 min
bioavailability [6]: 63.1%
half-life [7]: 24 min
Cmax [8]: 1560 ng/mL
AUC(0-t) [9]: 464 ng·h/mL
MRT last [10]: 18 min
clearance [11]: 71.7 mL/min/kg
Vd [12]: 2.6 L/kg
Structure (SMILES): CC(=O)N1CCC(Nc2ccc3c(c2)C(=O)N(C[C@H](O)CN2CCc4ccccc4C2)CC32CC2)CC1
IC50 (Z-138): 4.33 nM

IC50 (PRMT5/MEP50 complex): 8.61 nM
Structure (SMILES): CC(=O)N1CCC(C(=O)Nc2ccc3c(c2)C(=O)N(C[C@H](O)CN2CCc4ccccc4C2)CC32CC2)CC1
IC50 (Z-138): 103 nM

IC50 (PRMT5/MEP50 complex): 3.95 nM
Structure (SMILES): CC(=O)N1CCC(C(=O)Nc2ccc3c(c2)C(=O)N(C[C@H](O)CN2CCc4ccccc4C2)CC32CCC2)CC1
IC50 (Z-138): 91.8 nM

IC50 (PRMT5/MEP50 complex): 10.6 nM
Structure (SMILES): O=C(Nc1ccc2c(c1)C(=O)N(C[C@H](O)CN1CCc3ccccc3C1)CC21CC1)c1ccccc1
IC50 (Z-138): 400 nM

IC50 (PRMT5/MEP50 complex): 116 nM
Structure (SMILES): CC(=O)N1CCC(Nc2ccc3c(c2)C(=O)N(C[C@H](O)CN2CCc4ccccc4C2)CC32CCOC2)CC1 (some centres undefined)

IC50 (PRMT5/MEP50 complex): 9.01 nM
Structure (SMILES): O=C1c2cc(NC3CCNCC3)ccc2C2(CC2)CN1C[C@H](O)CN1CCc2ccccc2C1
IC50 (Z-138): 588 nM

IC50 (PRMT5/MEP50 complex): 22.6 nM
t1/2 ([1]; po, 10 mg/kg): 18 min
Tmax ([2]; po, 10 mg/kg): 6 min
Cmax ([3]; po, 10 mg/kg): 149.5 ng/mL
AUCt ([4]; po, 10 mg/kg): 794.2 ng·h/mL
MRT last [5]: 6 min
bioavailability [6]: 24.2%
half-life [7]: 78 min
Cmax [8]: 943 ng/mL
AUC(0-t) [9]: 656 ng·h/mL
MRT last [10]: 60 min
clearance [11]: 25 mL/min/kg
Vd [12]: 2.8 L/kg
Structure (SMILES): CC(=O)N1CCC(Nc2ccc3c(c2)C(=O)N(C[C@H](O)CN2CCc4ccccc4C2)CC32CCCC2)CC1
IC50 (Z-138): 10.3 nM
IC50 [18]: 350 nM

IC50 (PRMT5/MEP50 complex): 16.1 nM
Structure (SMILES): Cn1cc(C(=O)Nc2ccc3c(c2)C(=O)N(C[C@H](O)CN2CCc4ccccc4C2)CC32CCC2)cn1
IC50 (Z-138): 318 nM

IC50 (PRMT5/MEP50 complex): 26.4 nM
half-life [1]: 210 min
Tmax ([2]; Sprague-Dawley, read-out: Tmax): 18 min
Cmax ([3]; Sprague-Dawley, read-out: Cmax): 840 ng/mL
AUC(0-t) [4]: 1600 ng·h/mL
MRT last [5]: 132 min
bioavailability [6]: 23.4%
half-life [7]: 48 min
Cmax [8]: 1770 ng/mL
AUC(0-t) [9]: 1370 ng·h/mL
MRT last [10]: 48 min
clearance [11]: 25 mL/min/kg
Vd [12]: 1.6 L/kg
Structure (SMILES): CC(=O)N1CCC(Nc2ccc3c(c2)C(=O)N(C[C@H](O)CN2CCc4ccccc4C2)CC32CCC2)CC1
IC50 (Z-138): 3.89 nM
IC50 [18]: 460 nM

IC50 (PRMT5/MEP50 complex): 16.7 nM
Structure (SMILES): O=C(Nc1ccc2c(c1)C(=O)N(C[C@H](O)CN1CCc3ccccc3C1)CC21CC1)C1CCOCC1
IC50 (Z-138): 282 nM

More lines, now with the values behind:

Structure (SMILES): CC(=O)N1CCC(C(=O)N2CCC3(CC2)CCN(C[C@H](O)CN2CCc4ccccc4C2)C3=O)CC1
IC50 (PRMT5/MEP50 complex): > 10000 nM

Structure (SMILES): CC(=O)N1CCC(Nc2ccc3c(c2)CC(=O)N3C[C@H](O)CN2CCc3ccccc3C2)CC1
IC50 (PRMT5/MEP50 complex): > 10000 nM

Structure (SMILES): C[S+](CC[C@H](N)C(=O)[O-])C[C@H]1O[C@@H](n2cnc3c(N)ncnc32)[C@H](O)[C@@H]1O (some centres undefined) [ADEMETIONINE]
IC50 (PRMT5/MEP50 complex): 793 nM
IC50 [13]: 5170 nM
IC50 [14]: 42 nM
IC50 [15]: 1260 nM
IC50 [16]: 491 nM
IC50 [17]: 759 nM

Structure (SMILES): O=C1c2cc(NC3CCN(C(=O)C4CC4)CC3)ccc2C2(CCCC2)CN1C[C@H](O)CN1CCc2ccccc2C1
IC50 (PRMT5/MEP50 complex): 45.5 nM
IC50 (Z-138): 20.5 nM

Structure (SMILES): CC(=O)N1CCC(Nc2ccc3c(c2)C(=O)N(C[C@H](O)CN2CCc4ccccc4C2)CC3)CC1
IC50 (PRMT5/MEP50 complex): 37.5 nM
IC50 (Z-138): 14.3 nM

Structure (SMILES): CC(=O)N1CCC(C(=O)N2CCC3(CC2)C(=O)N(C[C@H](O)CN2CCc4ccccc4C2)c2ccccc23)CC1
IC50 (PRMT5/MEP50 complex): 3060 nM

Structure (SMILES): CC(=O)N1CCC(Nc2ccc3c(n2)C(=O)N(C[C@H](O)CN2CCc4ccccc4C2)CC32CC2)CC1
IC50 (PRMT5/MEP50 complex): 86.9 nM
IC50 (Z-138): 279 nM

Structure (SMILES): CC(=O)N1CCC(Nc2cc3c(cn2)C2(CC2)CN(C[C@H](O)CN2CCc4ccccc4C2)C3=O)CC1
IC50 (Z-138): 3.07 nM
half-life [1]: 24 min
Tmax ([2]; Sprague-Dawley, read-out: Tmax): 24 min
Cmax ([3]; Sprague-Dawley, read-out: Cmax): 145 ng/mL
AUC(0-t) [4]: 356 ng·h/mL
MRT last [5]: 12 min
bioavailability [6]: 16.4%
half-life [7]: 24 min
Cmax [8]: 678 ng/mL
AUC(0-t) [9]: 435 ng·h/mL
MRT last [10]: 54 min
clearance [11]: 38.3 mL/min/kg
Vd [12]: 3 L/kg

Structure (SMILES): CC(=O)N1CCC(Nc2ccc3c(c2)N(C[C@H](O)CN2CCc4ccccc4C2)C(=O)C3)CC1
IC50 (PRMT5/MEP50 complex): > 10000 nM

Structure (SMILES): O=C1c2cc(NS(=O)(=O)c3ccccc3)ccc2C2(CC2)CN1C[C@H](O)CN1CCc2ccccc2C1
IC50 (PRMT5/MEP50 complex): 249 nM

From ChEMBL document CHEMBL6087464, “Design, Synthesis, and Biological Evaluation of 3,4-Dihydroisoquinolin-1(2H)-one Derivatives as Protein Arginine Methyltransferase 5 Inhibitors for the Treatment of Non-Hodgkin's Lymphoma” (J Med Chem, 2025)
